Legend:
[1] = tested on: Nodal; assay: Western blot of Nodal (ProNodal) protein; assay type: cell-based, human; conditions: C8161, 10 nM, 24 h, corrected to β-actin
Protocol: Cells at 80% confluence were rinsed with PBS, harvested by scrapping into a modified RIPA buffer plus protease inhibitor cocktail using 100 μL buffer per 1 × 10^6 cells. After sonication and centrifugation, the protein concentrations in the supernatants were determined using a BCA assay (Thermo Fisher Scientific). […] Nodal was detected using a mouse monoclonal anti-Nodal antibody (sc-373910; Santa Cruz; 1 μg/ml in 20 mM Tris/150 mM NaCl/0.1% [w/v] Tween 20, pH 7.4 [TBST] plus 5% BSA) followed by an anti-mouse plus horseradish peroxidase (HRP) secondary antibody (NXA931; GE Healthcare; 1 μg/ml in TBST plus 5% BSA) and enhanced chemiluminescence (ECL; GE Healthcare). Smad2 was detected using a rabbit polyclonal anti-Smad2/3 antibody (07-408; Millipore; 1 μg/ml in TBST plus 5% BSA) followed by an anti-rabbit plus HRP secondary antibody (NA934V; GE Healthcare; 1 μg/ml in TBST plus 5% BSA) and ECL. […] To assess relative changes in protein expression, the exposed films were digitized using a ChemiDoc XRS imager (Bio-Rad Laboratories) and the relative amount of protein determined against the untreated control cells normalized to a value of 1.0 using the imager’s Quantity One software package (Bio-Rad Laboratories) and corrected for loading of protein into each lane against the β-actin protein measured in the control lane.

[2] = Cell viability at VM-inhibiting concentration; assay type: cell-based; conditions: human, human melanoma cells; 10 nM; read-out: percentage of viable cells
[3] = tested on: human melanoma (C8161) cells; assay: In vitro VM assay (3D Matrigel tubular network); assay type: cell-based; conditions: 24 h
Protocol: Aggressive human melanoma (C8161) cells were seeded at 1.0 × 10^5 onto 3D polymerized LDEV-free Matrigel (75 μL; 14 mg/ml; Corning Cat. No. 356232) for VM analysis in 12-well dishes containing no drug or various concentrations of CVM-1118. Matrigel-coated dishes were photographed for tubular network formation after 24 h.

[4] = target: T1, CEACAM5 (Homo sapiens, UniProt P06731); assay: Surface plasmon resonance (Biacore); assay type: binding; conditions: CEACAM5, SPR
T1 sequence (P06731 35-702): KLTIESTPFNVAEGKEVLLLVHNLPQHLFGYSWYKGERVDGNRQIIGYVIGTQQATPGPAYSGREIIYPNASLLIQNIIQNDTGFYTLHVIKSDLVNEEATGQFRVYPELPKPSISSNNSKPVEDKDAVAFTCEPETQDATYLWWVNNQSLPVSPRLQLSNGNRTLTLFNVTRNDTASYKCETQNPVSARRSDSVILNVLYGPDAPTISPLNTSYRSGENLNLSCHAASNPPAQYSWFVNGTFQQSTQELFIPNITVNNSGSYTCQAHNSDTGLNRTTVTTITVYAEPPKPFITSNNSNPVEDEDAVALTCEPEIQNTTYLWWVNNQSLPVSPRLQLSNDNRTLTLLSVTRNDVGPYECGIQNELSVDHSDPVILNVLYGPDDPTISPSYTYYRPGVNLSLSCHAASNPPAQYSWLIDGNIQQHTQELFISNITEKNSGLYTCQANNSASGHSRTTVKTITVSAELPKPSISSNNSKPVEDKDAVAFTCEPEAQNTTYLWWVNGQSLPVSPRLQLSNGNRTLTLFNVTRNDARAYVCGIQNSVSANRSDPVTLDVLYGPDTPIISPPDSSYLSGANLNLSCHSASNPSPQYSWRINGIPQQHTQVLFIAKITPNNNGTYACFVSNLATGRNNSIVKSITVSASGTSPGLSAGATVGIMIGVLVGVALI

[5] = tested on: RPMI-8226; assay: NCI 60 cytotoxicity screening; assay type: cell-based; conditions: Homo sapiens; RPMI-8226, Leukemia
[6] = tested on: A549/ATCC; assay: NCI 60 cytotoxicity screening; assay type: cell-based; conditions: Homo sapiens, NSCLC
[7] = tested on: HCT-15; assay: NCI 60 cytotoxicity screening; assay type: cell-based; conditions: Homo sapiens; HCT-15, Colon
[8] = tested on: SF-539; assay: NCI 60 cytotoxicity screening; assay type: cell-based; conditions: Homo sapiens; SF-539, CNS
[9] = tested on: HOP-62; assay: NCI 60 cytotoxicity screening; assay type: cell-based; conditions: Homo sapiens; HOP-62, NSCLC
[10] = tested on: OVCAR-4; assay: NCI 60 cytotoxicity screening; assay type: cell-based; conditions: Homo sapiens; OVCAR-4, Ovarian
[11] = tested on: SR; assay: NCI 60 cytotoxicity screening; assay type: cell-based; conditions: Homo sapiens, Leukemia
[12] = tested on: NCI/ADR-RES; assay: NCI 60 cytotoxicity screening; assay type: cell-based; conditions: Homo sapiens, Ovarian
[13] = tested on: CCRF-CEM; assay: NCI 60 cytotoxicity screening; assay type: cell-based; conditions: Homo sapiens, Leukemia
[14] = tested on: COLO 205; assay: NCI 60 cytotoxicity screening; assay type: cell-based; conditions: Homo sapiens; COLO 205, Colon
[15] = tested on: SK-OV-3; assay: NCI 60 cytotoxicity screening; assay type: cell-based; conditions: Homo sapiens; SK-OV-3, Ovarian
[16] = tested on: EKVX; assay: NCI 60 cytotoxicity screening; assay type: cell-based; conditions: Homo sapiens, NSCLC
[17] = tested on: SK-MEL-5; assay: NCI 60 cytotoxicity screening; assay type: cell-based; conditions: Homo sapiens; SK-MEL-5, Melanoma

COc1ccc2[nH]c(-c3cccc(F)c3)cc(=O)c2c1OP(=O)(O)O [CVM-1118]
reduction of Nodal protein levels [1]: 63%
viability at 0.01 µM [2]: > 90%
VM (in vitro) tubular network formation ([3]; C8161, 5 nM): disrupted
VM (in vitro) tubular network formation ([3]; C8161, 10 nM): significantly inhibited
VM (in vitro) tubular network formation ([3]; C8161, 50 nM): significantly inhibited

COc1ccc2[nH]c(-c3cccc(F)c3)cc(=O)c2c1O [CVM-1125]
Association (ka) [4]: No interaction
Dissociation (kd) [4]: No interaction
KD (kd/ka) [4]: No interaction
GI50 [5]: 33.1 nM
GI50 [6]: 41.4 nM
GI50 [7]: 35.5 nM
GI50 [8]: 26.2 nM
GI50 [9]: 49.6 nM
GI50 [10]: 43.6 nM
GI50 [11]: 12 nM
GI50 [12]: 20.8 nM
GI50 [13]: 34.8 nM
GI50 [14]: 25.2 nM
GI50 [15]: 35.6 nM
GI50 [16]: 46.1 nM
GI50 [17]: 29.8 nM

From publication PMC10283505, “CVM-1118 (foslinanib), a 2-phenyl-4-quinolone derivative, promotes apoptosis and inhibits vasculogenic mimicry via targeting TRAP1” (Pathology and Oncology Research, 2023)
